Assay results published in patent publication US11559512B2, “Composition for prevention, alleviation, and/or treatment of heat illness” (priority 2017, dated 2023).
“Also recorded” adds a separate entry of the source. Where two headings read alike, the source gives them in different places.

What was measured:
[1] = system: human vascular endothelial cells (HUVECs)
Experimental: Then, 2 mL of trypsin/EDTA was added to the cells, and the cells were detached by incubation at 37° C. in a 5% CO2 environment. After the cell detachment, 5 mL/dish of a culture medium was added, and the cells were transferred to a 15-mL tube and centrifuged at 1200 rpm for 5 minutes in a centrifuge. The supernatant was removed, and then, the number of cells was adjusted to a cell density of 5×10^4 cells/mL using a cell counting kit by the addition of 5 mL of a culture medium. Then, two 6-well plates were used, and the solution with the adjusted HUVEC density was inoculated at 4 mL/well to 3 wells of each plate. Each phytochemical component was added at 4 μL (final concentration: 10 μM)/well to one well of each plate. Also, a phytochemical dissolving solution DMSO was added at 4 μL/well to the remaining wells to prepare a control. […]
Serial dilutions of auraptene were added to the cells, and the cell death of the HUVECs caused by heat stress was observed by crystal violet staining.

[2] = system: human vascular endothelial cells (HUVECs); test: DiOC6 / PI staining and flow cytometry of HUVECs under heat stress load; format: cell-based; conditions: heat stress load 40° C. for 2 days, flow cytometry, vs DMSO
Experimental: Two days later, the culture solution of each well was removed with an aspirator. […] The supernatant was removed, and then, 5 mL of a culture medium at 37° C. was added to the cells and stirred. After the stirring, DiOC6 (final concentration: 80 nM) was added to each 15-mL tube and reacted at the same temperature as the culture temperature for 30 minutes.
The supernatant was removed, and then, 1 mL of a culture medium was added to the cells, and 2 μL of PI (Sigma-Aldrich Co. LLC) was added. The cells thus supplemented were transferred to a FACS tube and measured in a flow cytometer (BD).
In order to quantify the effects, the cytotoxicity suppressive effects of auraptene (component A) and tangeretin (component T) inhibiting the cell death caused by the load of heat stress were quantified using DiOC6 staining and flow cytometry as described above. The DiOC6 dye is a reagent for measuring mitochondrial activity and is a reagent that can perform measurement based on the attenuation of the amount of fluorescence by cytotoxicity (cell death, etc.).

[3] = system: fat droplets in human vascular endothelial cells (HUVECs); test: Intracellular fat droplets, BODIPY staining, confocal microscopy; format: cell-based
Experimental: Then, nine 35-mm dishes were provided, and 2 mL/dish of the solution with the adjusted HUVEC density was inoculated. Auraptene (10 mM) and tangeretin (10 mM) were each added at 2 μL (final concentration: 10 μM)/dish to three dishes. Also, DMSO was added at 2 μL/dish to the remaining 3 dishes to prepare a control.
The supernatant of the HUVECs cultured in each 35-mm dish was removed, and 2 mL/dish of 4% paraformaldehyde in a phosphate buffer solution was added. The cells were left standing at room temperature for 1 hour for cell fixation. The solution was removed, and then, the cells were rinsed twice. 1 mL/dish of BODIPY diluted 2000-fold with a FACS buffer was added, and the cells were left standing at room temperature for 30 minutes in the dark for reaction.
The solution was removed, and then, the cells were rinsed twice. Two drops of Diamond Antifade Mountant with DAPI were added to the cells, and a round glass cover was put on the cells, followed by fluorescence photographing under a confocal laser scanning microscope.

PPARα = PPARα expression in HUVECs, antibody staining, confocal microscopy; format: cell-based, human
Experimental: (§1) Then, six 35-mm dishes were provided, and 2 mL/dish of the solution with the adjusted HUVEC density was inoculated. Auraptene (10 mM) and tangeretin (10 mM) were each added at 2 μL (final concentration: 10 μM)/dish to two dishes. Also, DMSO was added at 2 μL/dish to the remaining 2 dishes to prepare a control.
(§2) The supernatant of the HUVECs cultured in each 35-mm dish was removed, and 2 mL/dish of 4% paraformaldehyde in a phosphate buffer solution was added. The cells were left standing at room temperature for 1 hour.
(§3) The solution was removed, and then, the cells were rinsed twice. 2 mL/dish of 0.5% Triton-X00 (Wako Pure Chemical Industries, Ltd.) in PBS was added, and the cells were left standing at room temperature for 5 minutes. The solution was removed, and then, the cells were rinsed twice. 1 mL/dish of an anti-ABCD3 antibody, an anti-PPARα antibody or an anti-PPARγ antibody, each of which was diluted 150-fold with a FACS buffer, was added, and the cells were left standing at room temperature for 2 hours for reaction.
(§4) The solution was removed, and then, the cells were rinsed twice. 1 mL/dish of DyLight 649-labeled anti-Rabbit IgG antibody diluted 500-fold with a FACS buffer was added, and the cells were left standing at room temperature for 1 hour in the dark for reaction. The solution was removed, and then, the cells were rinsed twice. Two drops of Diamond Antifade Mountant with DAPI were added to the cells, and a round glass cover was put on the cells, followed by fluorescence photographing under a confocal laser scanning microscope.

PPARγ = PPARγ expression in HUVECs, antibody staining, confocal microscopy; format: cell-based, human
Experimental: as §1, §2, §3, §4

ABCD3 = ABCD3 expression in HUVECs, antibody staining, confocal microscopy; format: cell-based, human; conditions: usual culture and heat stress load (40° C. for 3 days), vs DMSO
Experimental: as §1, §2, §3
The solution was removed, and then, the cells were rinsed twice. […] Two drops of Diamond Antifade Mountant with DAPI were added to the cells, and a round glass cover was put on the cells, followed by fluorescence photographing under a confocal laser scanning microscope.

[4] = HUVECs, 40° C. for 2 days, final concentration 10 μM
[5] = Table 2 summary, HUVECs 40° C., 37° C. as comparative control
[6] = HUVECs, 40° C. and 1 day, 10 μM, vs DMSO

C[N+](C)(C)C[C@H](O)CC(=O)[O-] [L-carnitine, reference compound]
concentration at which the cell death suppressive effect was confirmed (value in brackets) ([1]; HUVECs, 40° C. for 3 days, crystal violet staining): 15 mM | concentration at which the cell death suppressive effect was observed ([1]; HUVECs, 40° C. for 3 days, 0, 1.2 or 2.5 mg/ml): 2.5 mg/mL | concentration required relative to auraptene ([1]; cell death suppressive effect, HUVECs 40° C.): approximately 25000 times

CC(C)(Oc1ccc(CCNC(=O)c2ccc(Cl)cc2)cc1)C(=O)O [bezafibrate, reference compound]
suppression of cytotoxicity caused by the load of heat stress (phase contrast microscopic observation) [1]: unable to suppress the cytotoxicity

C[N+](C)(C)[C@@H](Cc1c[nH]c(=S)[nH]1)C(=O)[O-] [ergothioneine, reference compound]
suppression of cytotoxicity caused by the load of heat stress (phase contrast microscopic observation) [1, 4]: unable to suppress the cytotoxicity

COc1ccc(-c2cc(=O)c3c(OC)c(OC)c(OC)c(OC)c3o2)cc1OC [nobiletin, reference compound]
suppression of cytotoxicity caused by the load of heat stress (phase contrast microscopic observation) [1, 4]: unable to suppress the cytotoxicity

COc1ccc2ccc(=O)oc2c1CC=C(C)C [osthol, reference compound]
suppression of cytotoxicity caused by the load of heat stress (phase contrast microscopic observation) [1, 4]: unable to suppress the cytotoxicity

Oc1ccc(C=Cc2cc(O)cc(O)c2)cc1 [resveratrol, reference compound]
suppression of cytotoxicity caused by the load of heat stress (phase contrast microscopic observation) [1]: unable to suppress the cytotoxicity

C[S+]([O-])CCCCN=C=S (centres unmarked) [sulforaphane, reference compound]
suppression of cytotoxicity caused by the load of heat stress (phase contrast microscopic observation) [1]: unable to suppress the cytotoxicity

COc1ccc(-c2cc(=O)c3c(OC)c(OC)c(OC)c(OC)c3o2)cc1 [tangeretin, 4′,5,6,7,8-pentamethoxyflavone]
Cytotoxicity (cell death) [1]: Suppressed | cell survival by crystal violet staining ([1]; HUVECs cultured at 40° C. for 3 days, vs DMSO): evidently increased cell survival | number of DiOC6 staining-positive cells (suppression of cytotoxicity, cell death) [2]: increased the number of DiOC6 staining-positive cells | amount of fat droplets under heat stress load ([3]; HUVECs, 40° C. for 2 days, 10 μM, BODIPY, vs DMSO): decrease in the amount of fat droplets; also recorded: decreased the amount of fat droplets | amount of fat droplets at usual culture ([3]; HUVECs, usual culture (37° C.), 10 μM, vs DMSO): no change in the amount of fat droplets | Amount of fat droplets [3, 5]: Decreased | expression of PPARα (PPARα; [6]): increase in the expression of PPARα | PPARα (PPARα; [5]): Increased | expression of PPARγ (PPARγ; [6]): increasing effect was not observed | PPARγ (PPARγ; [5]): Increased | change in the expression of ABCD3 (ABCD3): change in the expression of ABCD3 was not observed
